# From ChEMBL document CHEMBL4138146, “A Schmidt rearrangement-mediated synthesis of novel tetrahydro-benzo[1,4]diazepin-5-ones as potential anticancer and antiprotozoal agents” (Eur J Med Chem, 2017)
# Tests used:
# Assay type in all cases: functional
# [1] = system: TK-10; test: Growth inhibition of human TK10 cells incubated for 48 hrs by sulforhodamine B assay; conditions: TK-10, 48 h
# [2] = system: HCC 2998; test: Growth inhibition of human HCC2998 cells incubated for 48 hrs by sulforhodamine B assay; conditions: HCC 2998, 48 h
# [3] = system: MDA-MB-468; test: Growth inhibition of human MDA-MB-468 cells incubated for 48 hrs by sulforhodamine B assay; conditions: MDA-MB-468, 48 h
# [4] = system: BT-549; test: Growth inhibition of human BT549 cells incubated for 48 hrs by sulforhodamine B assay; conditions: BT-549, 48 h
# [5] = system: MCF7; test: Growth inhibition of human MCF7 cells incubated for 48 hrs by sulforhodamine B assay; conditions: MCF7, 48 h
# [6] = system: OVCAR-4; test: Growth inhibition of human OVCAR4 cells incubated for 48 hrs by sulforhodamine B assay; conditions: OVCAR-4, 48 h
# [7] = system: SNB-19; test: Growth inhibition of human SNB19 cells incubated for 48 hrs by sulforhodamine B assay; conditions: SNB-19, 48 h
# [8] = system: U-251; test: Growth inhibition of human U251 cells incubated for 48 hrs by sulforhodamine B assay; conditions: U-251, 48 h
# [9] = system: SK-OV-3; test: Growth inhibition of human SKOV3 cells incubated for 48 hrs by sulforhodamine B assay; conditions: SK-OV-3, 48 h; for CC50: read-out: LC50 (the source's name)
# [10] = system: OVCAR-8; test: Growth inhibition of human OVCAR8 cells incubated for 48 hrs by sulforhodamine B assay; conditions: OVCAR-8, 48 h
# [11] = system: SK-MEL-5; test: Growth inhibition of human SK-MEL-5 cells incubated for 48 hrs by sulforhodamine B assay; conditions: SK-MEL-5, 48 h; for CC50: read-out: LC50 (the source's name)
# [12] = system: Hs-578T; test: Growth inhibition of human Hs 578T cells incubated for 48 hrs by sulforhodamine B assay
# [13] = system: Malme-3M; test: Growth inhibition of human MALME-3M cells incubated for 48 hrs by sulforhodamine B assay
# [14] = system: SF-268; test: Growth inhibition of human SF268 cells incubated for 48 hrs by sulforhodamine B assay; conditions: SF-268, 48 h
# [15] = system: KM12; test: Growth inhibition of human KM12 cells incubated for 48 hrs by sulforhodamine B assay; conditions: KM12, 48 h
# [16] = system: NCI-H226; test: Growth inhibition of human NCI-H226 cells incubated for 48 hrs by sulforhodamine B assay; conditions: NCI-H226, 48 h; for CC50: read-out: LC50 (the source's name)
# [17] = system: 786-0; test: Growth inhibition of human 786-0 cells incubated for 48 hrs by sulforhodamine B assay; conditions: 786-0, 48 h
# [18] = system: MOLT-4; test: Growth inhibition of human MOLT4 cells incubated for 48 hrs by sulforhodamine B assay; conditions: MOLT-4, 48 h; for CC50: read-out: LC50 (the source's name)
# [19] = system: HCT-15; test: Growth inhibition of human HCT15 cells incubated for 48 hrs by sulforhodamine B assay; conditions: HCT-15, 48 h; for CC50: read-out: LC50 (the source's name)
# [20] = system: T47D; test: Growth inhibition of human T47D cells assessed as cell growth at 10^-5 M incubated for 48 hrs by sulforhodamine B assay relative to control; conditions: read-out: Activity
# [21] = system: U-251; test: Growth inhibition of human U251 cells assessed as cell growth at 10^-7 M incubated for 48 hrs by sulforhodamine B assay relative to control; conditions: U-251, 48 h, read-out: Activity
# [22] = system: SNB-75; test: Growth inhibition of human SNB75 cells assessed as cell growth at 10^-4 M incubated for 48 hrs by sulforhodamine B assay relative to control; conditions: SNB-75, 48 h, read-out: Activity
# [23] = system: SR; test: Growth inhibition of human SR cells assessed as cell growth at 10^-8 M incubated for 48 hrs by sulforhodamine B assay relative to control; conditions: read-out: Activity
# [24] = system: MOLT-4; test: Growth inhibition of human MOLT4 cells assessed as cell growth at 10^-6 M incubated for 48 hrs by sulforhodamine B assay relative to control; conditions: MOLT-4, 48 h, read-out: Activity
# [25] = system: A498; test: Growth inhibition of human A498 cells assessed as cell growth at 10^-4 M incubated for 48 hrs by sulforhodamine B assay relative to control; conditions: A498, 48 h, read-out: Activity
# [26] = system: OVCAR-8; test: Growth inhibition of human OVCAR8 cells assessed as cell growth at 10^-6 M incubated for 48 hrs by sulforhodamine B assay relative to control; conditions: OVCAR-8, 48 h, read-out: Activity
# [27] = system: CAKI-1; test: Growth inhibition of human Caki1 cells assessed as cell growth at 10^-6 M incubated for 48 hrs by sulforhodamine B assay relative to control; conditions: CAKI-1, 48 h, read-out: Activity
# [28] = system: OVCAR-8; test: Growth inhibition of human OVCAR8 cells assessed as cell growth at 10^-5 M incubated for 48 hrs by sulforhodamine B assay relative to control; conditions: OVCAR-8, 48 h, read-out: Activity
# [29] = system: M14; test: Growth inhibition of human M14 cells assessed as cell growth at 10^-7 M incubated for 48 hrs by sulforhodamine B assay relative to control; conditions: M14, 48 h, read-out: Activity
# [30] = system: OVCAR-5; test: Growth inhibition of human OVCAR5 cells assessed as cell growth at 10^-6 M incubated for 48 hrs by sulforhodamine B assay relative to control; conditions: OVCAR-5, 48 h, read-out: Activity
# [31] = system: OVCAR-5; test: Growth inhibition of human OVCAR5 cells assessed as cell growth at 10^-7 M incubated for 48 hrs by sulforhodamine B assay relative to control; conditions: OVCAR-5, 48 h, read-out: Activity
# [32] = system: CAKI-1; test: Growth inhibition of human Caki1 cells assessed as cell growth at 10^-4 M incubated for 48 hrs by sulforhodamine B assay relative to control; conditions: CAKI-1, 48 h, read-out: Activity
# [33] = system: HOP-92; test: Growth inhibition of human HOP92 cells assessed as cell growth at 10^-4 M incubated for 48 hrs by sulforhodamine B assay relative to control; conditions: HOP-92, 48 h, read-out: Activity
# [34] = system: 786-0; test: Growth inhibition of human 786-0 cells assessed as cell growth at 10^-8 M incubated for 48 hrs by sulforhodamine B assay relative to control; conditions: 786-0, 48 h, read-out: Activity
# [35] = system: HCT-15; test: Growth inhibition of human HCT15 cells assessed as cell growth at 10^-6 M incubated for 48 hrs by sulforhodamine B assay relative to control; conditions: HCT-15, 48 h, read-out: Activity
# [36] = system: SK-MEL-28; test: Growth inhibition of human SK-MEL-28 cells assessed as cell growth at 10^-5 M incubated for 48 hrs by sulforhodamine B assay relative to control; conditions: SK-MEL-28, 48 h, read-out: Activity
# [37] = read-out: LC50 (the source's name)
smiles,measurement,setting,value
COc1cccc2c1C(=O)c1c(O)c3c(c(O)c1C2=O)C[C@@](O)(C(=O)CO)C[C@@H]3O[C@H]1C[C@H](N)[C@H](O)[C@H](C)O1 [DOXORUBICIN],GI50,[1],0.38 µM
same,GI50,[2],0.26 µM
same,GI50,[3],0.05 µM
same,GI50,[4],0.23 µM
same,GI50,[5],0.04 µM
same,GI50,[6],0.37 µM
same,GI50,[7],0.04 µM
same,GI50,[8],0.04 µM
same,GI50,[9],0.22 µM
same,CC50,[9],100 µM
same,GI50,[10],0.1 µM
same,GI50,[11],0.14 µM
same,CC50,[11],8.15 µM
same,GI50,[12],0.33 µM
same,GI50,[13],0.12 µM
same,GI50,[14],0.1 µM
same,GI50,[15],0.27 µM
same,GI50,[16],0.05 µM
same,CC50,[16],6.4 µM
same,GI50,[17],0.13 µM
same,GI50,[18],0.03 µM
same,CC50,[18],100 µM
same,CC50,[19],100 µM
CCCCOc1nc2ccccc2cc1C1CNC(=O)c2ccccc2N1 (configuration not stated),GI50,[1],4.93 µM
same,TGI,[1],21.6 µM
same,CC50,[1]; [37],73.8 µM
same,growth at 10 µM,[20],36%
same,growth at 0.1 µM,[21],96%
same,growth at 100 µM,[22],-79%
same,growth at 0.01 µM,[23],86%
same,GI50,[2],3.58 µM
same,TGI,[2],26.7 µM
same,CC50,[2]; [37],> 100 µM
same,GI50,[3],1.61 µM
same,TGI,[3],7.34 µM
same,CC50,[3]; [37],> 100 µM
same,growth at 1 µM,[24],92%
same,growth at 100 µM,[25],-38%
same,GI50,[4],5.22 µM
same,TGI,[4],38.8 µM
same,CC50,[4]; [37],> 100 µM
same,GI50,[5],1.73 µM
same,TGI,[5],16.1 µM
same,CC50,[5]; [37],> 100 µM
same,GI50,[6],5.38 µM
same,TGI,[6],31.8 µM
same,CC50,[6]; [37],> 100 µM
same,growth at 1 µM,[26],94%
same,growth at 1 µM,[27],70%
same,GI50,[7],6.13 µM
same,TGI,[7],75.3 µM
same,CC50,[7]; [37],> 100 µM
same,growth at 10 µM,[28],12%
same,growth at 0.1 µM,[29],91%
same,growth at 1 µM,[30],98%
same,growth at 0.1 µM,[31],102%
same,GI50,[8],3.03 µM
same,TGI,[8],13.7 µM
same,CC50,[8]; [37],50.1 µM
same,growth at 100 µM,[32],-22%
same,growth at 100 µM,[33],-38%
same,GI50,[9],2.38 µM
same,TGI,[9],9.96 µM
same,CC50,[9],> 100 µM
same,GI50,[10],3.45 µM
same,TGI,[10],16.1 µM
same,CC50,[10]; [37],> 100 µM
same,GI50,[11],2.34 µM
same,TGI,[11],20 µM
same,CC50,[11],> 100 µM
same,GI50,[12],3.21 µM
same,TGI,[12],33.8 µM
same,CC50,[12]; [37],> 100 µM
same,growth at 0.01 µM,[34],99%
same,growth at 1 µM,[35],69%
same,GI50,[13],3.58 µM
same,TGI,[13],27 µM
same,CC50,[13]; [37],92 µM
same,GI50,[14],4.14 µM
same,TGI,[14],> 100 µM
same,CC50,[14]; [37],> 100 µM
same,GI50,[15],3.3 µM
same,TGI,[15],80.6 µM
same,CC50,[15]; [37],> 100 µM
same,GI50,[16],3.13 µM
same,TGI,[16],14.9 µM
same,CC50,[16],> 100 µM
same,GI50,[17],2.84 µM
same,TGI,[17],10.4 µM
same,CC50,[17]; [37],4.65 µM
same,GI50,[18],3.05 µM
same,TGI,[18],13.6 µM
same,CC50,[18],> 100 µM
same,growth at 10 µM,[36],44%
same,GI50,[19],1.92 µM
same,TGI,[19],10.8 µM
same,CC50,[19],48.6 µM
